# Measurements published in the CheMixHub viscosity set.
# ± gives the uncertainty stated by the source.
# Assay: xn = mol fraction of the nth substance listed
smiles,measurement,setting,value
C=CC(=O)OC + CCCCO,viscosity,"308.15 K, 101.33 kPa, x1 = 0.0466",1.721 ± 0.01 mPa·s
same,viscosity,"308.15 K, 101.33 kPa, x1 = 0.1448",1.322 ± 0.008 mPa·s
same,viscosity,"308.15 K, 101.33 kPa, x1 = 0.2429",1.042 ± 0.007 mPa·s
same,viscosity,"308.15 K, 101.33 kPa, x1 = 0.3387",0.847 ± 0.006 mPa·s
same,viscosity,"308.15 K, 101.33 kPa, x1 = 0.4481",0.688 ± 0.005 mPa·s
same,viscosity,"308.15 K, 101.33 kPa, x1 = 0.5003",0.63 ± 0.005 mPa·s
same,viscosity,"308.15 K, 101.33 kPa, x1 = 0.5436",0.589 ± 0.005 mPa·s
same,viscosity,"308.15 K, 101.33 kPa, x1 = 0.6469",0.512 ± 0.004 mPa·s
same,viscosity,"308.15 K, 101.33 kPa, x1 = 0.7461",0.459 ± 0.004 mPa·s
same,viscosity,"308.15 K, 101.33 kPa, x1 = 0.8469",0.422 ± 0.004 mPa·s
same,viscosity,"308.15 K, 101.33 kPa, x1 = 0.9456",0.399 ± 0.004 mPa·s
same,viscosity,"318.15 K, 101.33 kPa, x1 = 0.0466",1.393 ± 0.009 mPa·s
same,viscosity,"318.15 K, 101.33 kPa, x1 = 0.1448",1.115 ± 0.007 mPa·s
same,viscosity,"318.15 K, 101.33 kPa, x1 = 0.2429",0.908 ± 0.006 mPa·s
same,viscosity,"318.15 K, 101.33 kPa, x1 = 0.3387",0.755 ± 0.005 mPa·s
same,viscosity,"318.15 K, 101.33 kPa, x1 = 0.4481",0.625 ± 0.005 mPa·s
same,viscosity,"318.15 K, 101.33 kPa, x1 = 0.5003",0.575 ± 0.004 mPa·s
same,viscosity,"318.15 K, 101.33 kPa, x1 = 0.5436",0.539 ± 0.004 mPa·s
same,viscosity,"318.15 K, 101.33 kPa, x1 = 0.6469",0.468 ± 0.004 mPa·s
same,viscosity,"318.15 K, 101.33 kPa, x1 = 0.7461",0.416 ± 0.004 mPa·s
same,viscosity,"318.15 K, 101.33 kPa, x1 = 0.8469",0.375 ± 0.003 mPa·s
same,viscosity,"318.15 K, 101.33 kPa, x1 = 0.9456",0.346 ± 0.003 mPa·s
C1CCC2=[NH+]CCCN2CC1.c1nc[n-]n1 + CO,viscosity,"303.15 K, 100 kPa, x1 = 0.1001",5.23 ± 0.11 mPa·s
same,viscosity,"303.15 K, 100 kPa, x1 = 0.2",8.57 ± 0.19 mPa·s
same,viscosity,"303.15 K, 100 kPa, x1 = 0.2999",24.53 ± 0.56 mPa·s
same,viscosity,"303.15 K, 100 kPa, x1 = 0.4003",57.03 ± 1.3 mPa·s
same,viscosity,"303.15 K, 100 kPa, x1 = 0.4989",104.5 ± 3.5 mPa·s
same,viscosity,"303.15 K, 100 kPa, x1 = 0.6002",205.4 ± 11 mPa·s
same,viscosity,"303.15 K, 100 kPa, x1 = 0.7008",366.4 ± 27 mPa·s
same,viscosity,"303.15 K, 100 kPa, x1 = 0.7993",555.9 ± 49 mPa·s
same,viscosity,"303.15 K, 100 kPa, x1 = 0.9002",882.9 ± 93 mPa·s
CCCCCOC(C)=O + Cc1cccc(O)c1,viscosity,"298.15 K, 101 kPa, x2 = 0.5",1.167 ± 0.011 mPa·s
CCCCCOC(C)=O + ClC(Cl)(Cl)Cl,viscosity,"303.15 K, 101.3 kPa, x1 = 0.0945",0.8029 ± 0.0052 mPa·s
same,viscosity,"303.15 K, 101.3 kPa, x1 = 0.1925",0.7788 ± 0.0051 mPa·s
same,viscosity,"303.15 K, 101.3 kPa, x1 = 0.3042",0.7586 ± 0.005 mPa·s
same,viscosity,"303.15 K, 101.3 kPa, x1 = 0.4017",0.7482 ± 0.0049 mPa·s
same,viscosity,"303.15 K, 101.3 kPa, x1 = 0.5021",0.7413 ± 0.0049 mPa·s
same,viscosity,"303.15 K, 101.3 kPa, x1 = 0.6003",0.7378 ± 0.0048 mPa·s
same,viscosity,"303.15 K, 101.3 kPa, x1 = 0.7016",0.7385 ± 0.0048 mPa·s
same,viscosity,"303.15 K, 101.3 kPa, x1 = 0.808",0.7427 ± 0.0049 mPa·s
same,viscosity,"303.15 K, 101.3 kPa, x1 = 0.9075",0.746 ± 0.0049 mPa·s
CCCCCOC(C)=O + CO,viscosity,"303.15 K, 101.3 kPa, x1 = 0.0524",0.537 ± 0.017 mPa·s
same,viscosity,"303.15 K, 101.3 kPa, x1 = 0.1018",0.561 ± 0.018 mPa·s
same,viscosity,"303.15 K, 101.3 kPa, x1 = 0.1038",0.533 ± 0.017 mPa·s
same,viscosity,"303.15 K, 101.3 kPa, x1 = 0.1608",0.547 ± 0.017 mPa·s
same,viscosity,"303.15 K, 101.3 kPa, x1 = 0.1934",0.608 ± 0.019 mPa·s
same,viscosity,"303.15 K, 101.3 kPa, x1 = 0.3024",0.652 ± 0.021 mPa·s
same,viscosity,"303.15 K, 101.3 kPa, x1 = 0.4255",0.695 ± 0.022 mPa·s
same,viscosity,"303.15 K, 101.3 kPa, x1 = 0.5168",0.719 ± 0.023 mPa·s
same,viscosity,"303.15 K, 101.3 kPa, x1 = 0.5951",0.733 ± 0.023 mPa·s
same,viscosity,"303.15 K, 101.3 kPa, x1 = 0.6976",0.753 ± 0.024 mPa·s
same,viscosity,"303.15 K, 101.3 kPa, x1 = 0.791",0.775 ± 0.025 mPa·s
same,viscosity,"303.15 K, 101.3 kPa, x1 = 0.8949",0.794 ± 0.025 mPa·s
Cc1ccccc1O + Cc1ccc(O)cc1,viscosity,"298.15 K, 101 kPa, x1 = 0.1547",13.27 ± 0.21 mPa·s
same,viscosity,"298.15 K, 101 kPa, x1 = 0.2999",12 ± 0.18 mPa·s
same,viscosity,"298.15 K, 101 kPa, x1 = 0.3525",11.63 ± 0.18 mPa·s
same,viscosity,"298.15 K, 101 kPa, x1 = 0.4233",11.03 ± 0.17 mPa·s
same,viscosity,"298.15 K, 101 kPa, x1 = 0.5256",10.3 ± 0.15 mPa·s
same,viscosity,"298.15 K, 101 kPa, x1 = 0.6304",9.612 ± 0.14 mPa·s
same,viscosity,"298.15 K, 101 kPa, x1 = 0.7573",8.854 ± 0.13 mPa·s
same,viscosity,"298.15 K, 101 kPa, x1 = 0.875",8.209 ± 0.12 mPa·s
same,viscosity,"313.15 K, 101.3 kPa, x1 = 0.1",6.38 ± 0.077 mPa·s
same,viscosity,"313.15 K, 101.3 kPa, x1 = 0.2",6.086 ± 0.073 mPa·s
same,viscosity,"313.15 K, 101.3 kPa, x1 = 0.3",5.766 ± 0.069 mPa·s
same,viscosity,"313.15 K, 101.3 kPa, x1 = 0.4",5.425 ± 0.065 mPa·s
same,viscosity,"313.15 K, 101.3 kPa, x1 = 0.5",5.125 ± 0.061 mPa·s
same,viscosity,"313.15 K, 101.3 kPa, x1 = 0.6",4.847 ± 0.057 mPa·s
same,viscosity,"313.15 K, 101.3 kPa, x1 = 0.7",4.616 ± 0.054 mPa·s
same,viscosity,"313.15 K, 101.3 kPa, x1 = 0.8",4.435 ± 0.052 mPa·s
same,viscosity,"313.15 K, 101.3 kPa, x1 = 0.9",4.3 ± 0.05 mPa·s
same,viscosity,"323.15 K, 101.3 kPa, x1 = 0.1",4.318 ± 0.053 mPa·s
same,viscosity,"323.15 K, 101.3 kPa, x1 = 0.2",4.147 ± 0.051 mPa·s
same,viscosity,"323.15 K, 101.3 kPa, x1 = 0.3",3.929 ± 0.048 mPa·s
same,viscosity,"323.15 K, 101.3 kPa, x1 = 0.4",3.727 ± 0.045 mPa·s
same,viscosity,"323.15 K, 101.3 kPa, x1 = 0.5",3.555 ± 0.043 mPa·s
same,viscosity,"323.15 K, 101.3 kPa, x1 = 0.6",3.401 ± 0.041 mPa·s
same,viscosity,"323.15 K, 101.3 kPa, x1 = 0.7",3.235 ± 0.039 mPa·s
same,viscosity,"323.15 K, 101.3 kPa, x1 = 0.8",3.112 ± 0.037 mPa·s
same,viscosity,"323.15 K, 101.3 kPa, x1 = 0.9",3.047 ± 0.036 mPa·s
Cc1nc(C)n(C)c1C + O,viscosity,"298.15 K, 100 kPa, x1 = 0.0159",1.258 ± 0.051 mPa·s
same,viscosity,"298.15 K, 100 kPa, x1 = 0.035",1.817 ± 0.074 mPa·s
same,viscosity,"298.15 K, 100 kPa, x1 = 0.0585",2.65 ± 0.11 mPa·s
same,viscosity,"298.15 K, 100 kPa, x1 = 0.0882",3.86 ± 0.16 mPa·s
same,viscosity,"298.15 K, 100 kPa, x1 = 0.127",5.77 ± 0.25 mPa·s
same,viscosity,"303.15 K, 100 kPa, x1 = 0.0159",1.125 ± 0.046 mPa·s
same,viscosity,"303.15 K, 100 kPa, x1 = 0.035",1.61 ± 0.066 mPa·s
same,viscosity,"303.15 K, 100 kPa, x1 = 0.0585",2.31 ± 0.09 mPa·s
same,viscosity,"303.15 K, 100 kPa, x1 = 0.0882",3.35 ± 0.14 mPa·s
same,viscosity,"303.15 K, 100 kPa, x1 = 0.127",4.91 ± 0.22 mPa·s
same,viscosity,"313.15 K, 100 kPa, x1 = 0.0159",0.899 ± 0.037 mPa·s
same,viscosity,"313.15 K, 100 kPa, x1 = 0.035",1.244 ± 0.051 mPa·s
same,viscosity,"313.15 K, 100 kPa, x1 = 0.0585",1.733 ± 0.071 mPa·s
same,viscosity,"313.15 K, 100 kPa, x1 = 0.0882",2.53 ± 0.1 mPa·s
same,viscosity,"313.15 K, 100 kPa, x1 = 0.127",3.36 ± 0.15 mPa·s
same,viscosity,"323.15 K, 100 kPa, x1 = 0.0159",0.756 ± 0.031 mPa·s
same,viscosity,"323.15 K, 100 kPa, x1 = 0.035",0.998 ± 0.041 mPa·s
same,viscosity,"323.15 K, 100 kPa, x1 = 0.0585",1.344 ± 0.055 mPa·s
same,viscosity,"323.15 K, 100 kPa, x1 = 0.0882",1.806 ± 0.073 mPa·s
same,viscosity,"323.15 K, 100 kPa, x1 = 0.127",2.44 ± 0.11 mPa·s
